Reference: publication PMC8850458, “The AUTOTAC chemical biology platform for targeted protein degradation via the autophagy-lysosome system” (Nature Communications, 2022)
Values joined by “and” are separate entries in the source; they are usually repeats but may differ in a detail not shown here. Identical values can stand only once.

System: RFP-GFP-hTauP301L pre-formed inclusion bodies
Assay: ICC of mRFP-GFP-hTauP301L inclusion bodies (puncta, GFP/RFP ratio) in HeLa cells
Assay type: cell-based
Conditions: Fig. S6i, PBA-1105 given with O.A.
Procedure: Cells were cultured on coverslips coated with poly-L-lysine (Sigma) to observe cellular localization of proteins. Using 4% paraformaldehyde in PBS (pH 7.4), the cells were fixed for 15 min at room temperature and washed three times for 5 min with PBS. After fixing, the cells were permeabilized with 0.5% Triton X-100 in PBS solution for 15 min and washed three times with PBS for 5 min. The cells were blocked containing 2% BSA in PBS solution for 1 h at room temperature. Subsequently, the cells were incubated with primary antibody diluted in 2% BSA/PBS solution overnight at 4 °C, followed by washing the cells three times for 10 min with PBS and incubated with Alexa Fluor-conjugated secondary antibody diluted in 2% BSA/PBS for 30 min at room temperature. Using a DAPI-containing mounting medium (Vector Laboratories), the coverslips were mounted on glass slides. Confocal images were taken by laser scanning confocal microscope 510 Meta (Zeiss) and analyzed by Zeiss LSM Image Browser (ver. 4.2.0.121). […] Quantification results are shown as mean ± S.D. or S.E.M. of three independent experiments […]
Supplementary Fig. 6. […]
(0.1 μM, 24 h). (h) ICC in HeLa cells transiently expressing mRFP-GFP-hTauP301L and treated with okadaic acid (15 nM, 24 h) prior to the presence or absence of PBA-1105 (100 nM, […]
24 h). Scale bar, 10 µm. (i) Quantification of h for punctate formation and GFP/RFP ratio (n=3 biologically independent experiments each counting 50 cells and 10 puncta within one image).
Data are presented as mean values ± SD for aggregate formation and as mean values ± SEM […]
for GFP/RFP ratio. […]
(1 µM, 24 h) or negative control. P-values (from a two-sided unpaired t-test): **P < 0.00662 (for tau aggregate formation), **P < 0.00779 (for GFP/RFP ratio). Source data are provided

With `O=C(CCCc1ccccc1)NCCOCCOCCOCCNCc1ccc(OCc2ccccc2)c(OCc2ccccc2)c1` [PBA-1105] the “AVG GFP/RFP ratio per puncta, total AVG” value (con 1.00467) was 0.4057, the “AVG GFP/RFP ratio per puncta, relative % AVG” value (con 100) was 40.3782% and the “AVG GFP/RFP ratio per puncta, AVG per experiment” value (n=1 to n=3) was 0.551 and 0.37 and 0.296. For the same compound, the “puncta formation of cells with AVG RFP/GFP ratio < 0.5, AVG of cells per 50 cells” value (RFP-GFP-TauP301L, con 4.33333) was 30.3333, the “puncta formation of cells with AVG RFP/GFP ratio < 0.5, percentage AVG” value (RFP-GFP-TauP301L, con 8.66667) was 60.6667 and the “puncta formation of cells with AVG RFP/GFP ratio < 0.5, cells counted per 50 cells” value (RFP-GFP-TauP301L, single experiments) was 33 and 37 and 21.
